In the NIST ThermoML archive (doi:10.1016/j.jct.2018.09.027):

Conditions: Crystal; for vapor or sublimation pressure: Calculated from knudsen effusion weight loss

O=C(O)c1cc(O)c(O)c(O)c1 [3,4,5-trihydroxybenzoic acid]
Conditions | Normal melting temperature [°C] | vapor or sublimation pressure [kPa]
432.88 K | – | 9.61e-05
434.44 K | – | 0.0001197
436.46 K | – | 0.0001349
438.62 K | – | 0.0001688
440.5 K | – | 0.0001779
442.58 K | – | 0.0002341
444.57 K | – | 0.000257
446.54 K | – | 0.000313
448.7 K | – | 0.0003927
450.78 K | – | 0.0004674
452.6 K | – | 0.0005635
454.63 K | – | 0.0006284
456.47 K | – | 0.0008057
458.78 K | – | 0.0009376
DTA | 263.5 | –
